Test results from patent US20220340633A1 (Adepthera LLC, priority 2016, published 2022).
Entries after “also recorded” stand apart in the source; their conditions may differ.

Key:
CLR/RAMP1 receptor = CLR/RAMP1 receptor (Homo sapiens, UniProt O60894+Q16602); conditions: for receptor specificity of antagonist: CLR/RAMP1 versus CLR/RAMP2
Method: Using a receptor activation assay, the dose-dependent stimulatory response of peptide agonists of the present invention on a CLR/RAMP1 receptor, a CLR/RAMP2, or a CLR/RAMP3 receptor complex was determined. A cell line carrying the recombinant CLR/RAMP1, CLR/RAMP2, or a CLR/RAMP3 receptor was employed in the assay. Peptide agonist activities were tested, in duplicate, at 10 different concentrations, starting with 1.0 μM and serially diluted 3-fold, in DMSO. […] The CLR/RAMP1 cAMP, CLR/RAMP2 arrestin assays, and CLR/RAMP3 cAMP (DiscoveRx, Fremont, Calif.) were used.
For the analysis of antagonistic activity, the synthetic analogs were pre-incubated with the cells before adding the reference ligand at its EC80.

[1] = test system: primary human lymphatic endothelia cells (HLEC); experiment: HLEC survival in medium with 0.1% FBS, MTS assay; conditions: 30, 100, and 300 nM, 72 hrs
Method: The cells were cultured for 72 hrs, and cell viability was assayed with the MTS assay (Promega).

Sequence of CLR/RAMP1 receptor (Q16602 23-461): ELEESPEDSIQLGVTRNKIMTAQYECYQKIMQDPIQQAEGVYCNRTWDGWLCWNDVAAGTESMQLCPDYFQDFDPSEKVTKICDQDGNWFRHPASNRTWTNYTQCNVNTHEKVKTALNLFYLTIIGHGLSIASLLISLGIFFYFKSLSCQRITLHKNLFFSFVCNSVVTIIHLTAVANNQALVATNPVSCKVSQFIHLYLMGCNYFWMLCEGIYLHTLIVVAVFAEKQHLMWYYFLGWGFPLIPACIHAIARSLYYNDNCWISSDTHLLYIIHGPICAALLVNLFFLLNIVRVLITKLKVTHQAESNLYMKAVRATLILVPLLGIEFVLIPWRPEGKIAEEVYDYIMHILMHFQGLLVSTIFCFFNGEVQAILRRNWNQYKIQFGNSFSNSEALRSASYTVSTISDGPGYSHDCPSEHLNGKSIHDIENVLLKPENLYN
Sequence of CLR/RAMP1 receptor (O60894 27-148): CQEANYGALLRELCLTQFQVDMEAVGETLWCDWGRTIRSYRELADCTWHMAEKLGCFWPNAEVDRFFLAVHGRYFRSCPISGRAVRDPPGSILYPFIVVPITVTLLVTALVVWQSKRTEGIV

Row | Structure (SMILES) | HLEC survival (in words) [1] | further results
1 | CCCCCCCCCCCCCCCC(=O)N[C@@H](CCCCN)C(=O)N[C@H](C(=O)N[C@@H](CCC(N)=O)C(=O)N[C@@H](CCCCN)C(=O)N[C@@H](CC(C)C)C(=O)N[C@@H](C)C(=O)N[C@@H](Cc1c[nH]cn1)C(=O)N[C@@H](CCC(N)=O)C(=O)N[C@H](C(=O)N[C@@H](Cc1ccc(O)cc1)C(=O)N[C@@H](CCC(N)=O)C(=O)N[C@@H](Cc1ccccc1)C(=O)N[C@H](C(=O)N[C@@H](CC(=O)O)C(=O)N[C@@H](CCCCN)C(=O)N[C@@H](CO)C(=O)N[C@@H](C)C(=O)N1CCC[C@H]1C(=O)N[C@H](C(=O)N[C@@H](CC(=O)O)C(=O)N1CCC[C@H]1C(=O)N[C@@H](CO)C(=O)N[C@@H](CO)C(=O)N1CCC[C@H]1C(=O)N[C@@H](Cc1c[nH]cn1)C(=O)N[C@@H](CO)C(=O)N[C@@H](Cc1ccc(O)cc1)C(N)=O)C(C)C)[C@@H](C)O)[C@@H](C)CC)C(C)C [SEQ ID NO: 125] |  | receptor specificity of antagonist (CLR/RAMP1 receptor): pan-specific
2 | CC[C@H](C)[C@H](NC(=O)[C@H](CCC(N)=O)NC(=O)[C@H](Cc1c[nH]cn1)NC(=O)[C@H](C)NC(=O)[C@H](CC(C)C)NC(=O)[C@H](CCCCN)NC(=O)[C@H](CCC(N)=O)NC(=O)[C@@H](NC(=O)[C@@H](NC(C)=O)[C@@H](C)O)C(C)C)C(=O)N[C@@H](Cc1ccc(O)cc1)C(=O)N[C@@H](CCC(N)=O)C(=O)N[C@@H](Cc1ccccc1)C(=O)N[C@H](C(=O)N[C@@H](CC(=O)O)C(=O)N[C@@H](CCCCN)C(=O)N[C@@H](CC(=O)O)C(=O)N[C@@H](CCCCN)C(=O)N[C@@H](CC(=O)O)C(=O)N[C@@H](CC(N)=O)C(=O)N[C@@H](CO)C(=O)N[C@@H](C)C(=O)N1CCC[C@H]1C(=O)N[C@H](C(=O)N[C@@H](CC(=O)O)C(=O)N1CCC[C@H]1C(=O)N[C@@H](CO)C(=O)N[C@@H](CO)C(=O)N1CCC[C@H]1C(=O)N[C@@H](Cc1c[nH]cn1)C(=O)N[C@@H](CO)C(=O)N[C@@H](Cc1ccc(O)cc1)C(N)=O)C(C)C)[C@@H](C)O [SEQ ID NO: 76] |  | antagonistic activity toward CLR/RAMP1 and/or CLR/RAMP2 receptor signaling (in words) (CLR/RAMP1 receptor; statement covers CGRP-stimulated CLR/RAMP1 and ADM-stimulated CLR/RAMP2): mildly improved antagonistic activity
3 | CCCCCCCCCCCCCCCC(=O)NCCCC[C@H](NC(=O)[C@@H](NC(C)=O)[C@@H](C)O)C(=O)N[C@@H](CCCCN)C(=O)N[C@H](C(=O)N[C@@H](CC(C)C)C(=O)N[C@@H](CCCNC(=N)N)C(=O)N[C@H](C(=O)NCC(=O)N[C@H]1CSSC[C@@H](C(=O)N[C@H](C(=O)N[C@H](C(=O)N[C@@H](CCC(N)=O)C(=O)N[C@@H](CCCCN)C(=O)N[C@@H](CC(C)C)C(=O)N[C@@H](C)C(=O)N[C@@H](Cc2c[nH]cn2)C(=O)N[C@@H](CCC(N)=O)C(=O)N[C@H](C(=O)N[C@@H](Cc2ccc(O)cc2)C(=O)N[C@@H](CCC(N)=O)C(=O)N[C@@H](Cc2ccccc2)C(=O)N[C@H](C(=O)N[C@@H](CC(=O)O)C(=O)N[C@@H](CCCCN)C(=O)N[C@@H](CC(=O)O)C(=O)N[C@@H](CCCCN)C(=O)N[C@@H](CC(=O)O)C(=O)N[C@@H](CC(N)=O)C(=O)N[C@@H](CO)C(=O)N[C@@H](C)C(=O)N2CCC[C@H]2C(=O)N[C@H](C(=O)N[C@@H](CC(=O)O)C(=O)N2CCC[C@H]2C(=O)N[C@@H](CO)C(=O)N[C@@H](CO)C(=O)N2CCC[C@H]2C(=O)N[C@@H](Cc2c[nH]cn2)C(=O)N[C@@H](CO)C(=O)N[C@@H](Cc2ccc(O)cc2)C(N)=O)C(C)C)[C@@H](C)O)[C@@H](C)CC)C(C)C)[C@@H](C)O)NC(=O)[C@H]([C@@H](C)O)NC(=O)CNC(=O)[C@H](Cc2ccccc2)NC(=O)[C@H](CCCNC(=N)N)NC1=O)[C@@H](C)O)[C@@H](C)O [SEQ ID NO: 39] | dose-dependently stimulated; also recorded: significantly promote | 
4 | CCCCCCCCCCCCCCCC(=O)N[C@@H](CCCCN)C(=O)N[C@H](C(=O)N[C@@H](CCCCN)C(=O)N[C@@H](CCCCN)C(=O)N[C@H](C(=O)N[C@@H](CC(C)C)C(=O)N[C@@H](CCCNC(=N)N)C(=O)N[C@H](C(=O)NCC(=O)N[C@H]1CSSC[C@@H](C(=O)N[C@H](C(=O)N[C@H](C(=O)N[C@@H](CCC(N)=O)C(=O)N[C@@H](CCCCN)C(=O)N[C@@H](CC(C)C)C(=O)N[C@@H](C)C(=O)N[C@@H](Cc2c[nH]cn2)C(=O)N[C@@H](CCC(N)=O)C(=O)N[C@H](C(=O)N[C@@H](Cc2ccc(O)cc2)C(=O)N[C@@H](CCC(N)=O)C(=O)N[C@@H](Cc2ccccc2)C(=O)N[C@H](C(=O)N[C@@H](CC(=O)O)C(=O)N[C@@H](CCCCN)C(=O)N[C@@H](CC(=O)O)C(=O)N[C@@H](CCCCN)C(=O)N[C@@H](CC(=O)O)C(=O)N[C@@H](CC(N)=O)C(=O)N[C@@H](CO)C(=O)N[C@@H](C)C(=O)N2CCC[C@H]2C(=O)N[C@H](C(=O)N[C@@H](CC(=O)O)C(=O)N2CCC[C@H]2C(=O)N[C@@H](CO)C(=O)N[C@@H](CO)C(=O)N2CCC[C@H]2C(=O)N[C@@H](Cc2c[nH]cn2)C(=O)N[C@@H](CO)C(=O)N[C@@H](Cc2ccc(O)cc2)C(N)=O)C(C)C)[C@@H](C)O)[C@@H](C)CC)C(C)C)[C@@H](C)O)NC(=O)[C@H]([C@@H](C)O)NC(=O)CNC(=O)[C@H](Cc2ccccc2)NC(=O)[C@H](CCCNC(=N)N)NC1=O)[C@@H](C)O)[C@@H](C)O)[C@@H](C)O [SEQ ID NO: 38] | dose-dependently stimulated; also recorded: significantly promote | 
5 | CSCC[C@H](NC(=O)[C@H](CC(C)C)NC(=O)[C@H](CCC(N)=O)NC(=O)[C@H](Cc1c[nH]c2ccccc12)NC(=O)[C@H](CC(C)C)NC(=O)[C@H](CCCNC(=N)N)NC(=O)[C@H](Cc1c[nH]cn1)NC(=O)[C@H](CO)NC(=O)[C@H](CC(C)C)NC(=O)[C@H](CC(N)=O)NC(=O)[C@H](CCC(N)=O)NC(=O)[C@@H](NC(=O)[C@H](CCC(N)=O)NC(=O)[C@@H]1CSSC[C@H](NC(=O)CNC(=O)[C@@H](NC(C)=O)C(C)C)C(=O)N[C@@H](C(C)C)C(=O)N[C@@H](CC(C)C)C(=O)NCC(=O)N[C@@H]([C@@H](C)O)C(=O)N1)C(C)C)C(=O)NCC(=O)N1CCC[C@H]1C(=O)N[C@@H](C)C(=O)NCC(=O)N[C@@H](CCCNC(=N)N)C(=O)N[C@@H](CCC(N)=O)C(=O)N[C@@H](CC(=O)O)C(=O)N[C@@H](CO)C(=O)N[C@@H](C)C(=O)N1CCC[C@H]1C(=O)N[C@H](C(=O)N[C@@H](CC(=O)O)C(=O)N1CCC[C@H]1C(=O)N[C@@H](CO)C(=O)N[C@@H](CO)C(=O)N1CCC[C@H]1C(=O)N[C@@H](Cc1c[nH]cn1)C(=O)N[C@@H](CO)C(=O)N[C@@H](Cc1ccc(O)cc1)C(N)=O)C(C)C [SEQ ID NO: 52, reference compound] | minimal effects; also recorded: negligible effects | 
6 | CCCCCCCCCCCCCCCC(=O)N[C@@H](CCCCN)C(=O)N[C@H](C(=O)N[C@@H](CCC(N)=O)C(=O)N[C@@H](CC(N)=O)C(=O)N[C@@H](CC(C)C)C(=O)N[C@@H](CO)C(=O)N[C@@H](Cc1c[nH]cn1)C(=O)N[C@@H](CCCNC(=N)N)C(=O)N[C@@H](CC(C)C)C(=O)N[C@@H](Cc1c[nH]c2ccccc12)C(=O)N[C@@H](CCC(N)=O)C(=O)N[C@@H](CC(C)C)C(=O)N[C@@H](CCSC)C(=O)NCC(=O)N1CCC[C@H]1C(=O)N[C@@H](C)C(=O)NCC(=O)N[C@@H](CO)C(=O)N[C@@H](C)C(=O)N1CCC[C@H]1C(=O)N[C@H](C(=O)N[C@@H](CC(=O)O)C(=O)N1CCC[C@H]1C(=O)N[C@@H](CO)C(=O)N[C@@H](CO)C(=O)N1CCC[C@H]1C(=O)N[C@@H](Cc1c[nH]cn1)C(=O)N[C@@H](CO)C(=O)N[C@@H](Cc1ccc(O)cc1)C(N)=O)C(C)C)C(C)C [SEQ ID NO: 120] |  | receptor specificity of antagonist (CLR/RAMP1 receptor): CLR/RAMP1-specific
7 | CCCCCCCCCCCCCCCC(=O)N[C@@H](CCCCN)C(=O)NCC(=O)N[C@H]1CSSC[C@@H](C(=O)N[C@H](C(=O)N[C@H](C(=O)N[C@@H](CCC(N)=O)C(=O)N[C@@H](CCCCN)C(=O)N[C@@H](CC(C)C)C(=O)N[C@@H](C)C(=O)N[C@@H](Cc2c[nH]cn2)C(=O)N[C@@H](CCC(N)=O)C(=O)N[C@H](C(=O)N[C@@H](Cc2ccc(O)cc2)C(=O)N[C@@H](CCC(N)=O)C(=O)N[C@@H](Cc2ccccc2)C(=O)N[C@H](C(=O)N[C@@H](CC(=O)O)C(=O)N[C@@H](CCCCN)C(=O)N[C@@H](CC(=O)O)C(=O)N[C@@H](CCCCN)C(=O)N[C@@H](CC(=O)O)C(=O)N[C@@H](CC(N)=O)C(=O)N[C@@H](CO)C(=O)N[C@@H](C)C(=O)N2CCC[C@H]2C(=O)N[C@H](C(=O)N[C@@H](CC(=O)O)C(=O)N2CCC[C@H]2C(=O)N[C@@H](CO)C(=O)N[C@@H](CO)C(=O)N2CCC[C@H]2C(=O)N[C@@H](Cc2c[nH]cn2)C(=O)N[C@@H](CO)C(=O)N[C@@H](Cc2ccc(O)cc2)C(N)=O)C(C)C)[C@@H](C)O)[C@@H](C)CC)C(C)C)[C@@H](C)O)NC(=O)[C@H]([C@@H](C)O)NC(=O)CNC(=O)[C@H](Cc2ccccc2)NC(=O)[C@H](CCCNC(=N)N)NC1=O [SEQ ID NO: 30] | dose-dependently stimulated; also recorded: significantly promote | 
8 | CCCCCCCCCCCCCCCC(=O)NCCCC[C@H](NC(C)=O)C(=O)NCC(=O)N[C@H]1CSSC[C@@H](C(=O)N[C@H](C(=O)N[C@H](C(=O)N[C@@H](CCC(N)=O)C(=O)N[C@@H](CCCCN)C(=O)N[C@@H](CC(C)C)C(=O)N[C@@H](C)C(=O)N[C@@H](Cc2c[nH]cn2)C(=O)N[C@@H](CCC(N)=O)C(=O)N[C@H](C(=O)N[C@@H](Cc2ccc(O)cc2)C(=O)N[C@@H](CCC(N)=O)C(=O)N[C@@H](Cc2ccccc2)C(=O)N[C@H](C(=O)N2CCC[C@H]2C(=O)N[C@@H](C)C(=O)NCC(=O)N[C@@H](CCCNC(=N)N)C(=O)N[C@@H](CCC(N)=O)C(=O)N[C@@H](CC(=O)O)C(=O)N[C@@H](CO)C(=O)N[C@@H](C)C(=O)N2CCC[C@H]2C(=O)N[C@H](C(=O)N[C@@H](CC(=O)O)C(=O)N2CCC[C@H]2C(=O)N[C@@H](CO)C(=O)N[C@@H](CO)C(=O)N2CCC[C@H]2C(=O)N[C@@H](Cc2c[nH]cn2)C(=O)N[C@@H](CO)C(=O)N[C@@H](Cc2ccc(O)cc2)C(N)=O)C(C)C)[C@@H](C)O)[C@@H](C)CC)C(C)C)[C@@H](C)O)NC(=O)[C@H]([C@@H](C)O)NC(=O)CNC(=O)[C@H](Cc2ccccc2)NC(=O)[C@H](CCCNC(=N)N)NC1=O [SEQ ID NO: 33] | dose-dependently stimulated; also recorded: significantly promote | 
